Assay results reported in PMC11579512, “Deoxybouvardin-glucoside induces apoptosis in non-small cell lung cancer cells by targeting EGFR/MET and AKT signaling pathway” (EXCLI Journal, 2024).

Assays:
Assay type in all cases: cell-based, human
[1] = system: p27; assay: Immunoblot p27 in HCC827 and HCC827GR cells
Protocol: (§1) HaCaT cells were grown in DMEM, whereas HCC827 and HCC827GR cells were grown in RPMI 1640. All culture media were supplemented with FBS (10 %) and P/S (1 %), and the cells were grown at 37 °C in 5 % CO2.
Cells were lysed in RIPA buffer, and protein concentration was determined using a Bio-Rad DC Protein Assay kit (Bio-Rad, Hercules, CA, USA). Protein samples from the cell lysates were resolved by sodium dodecyl sulfate-polyacrylamide gel electrophoresis and then transferred onto polyvinylidene fluoride membranes. The membranes were blocked with 3 % or 5 % skim milk and then incubated at 4 °C overnight with the indicated primary antibodies, followed by the corresponding horseradish peroxidase-conjugated secondary antibodies at RT for 2 h. Protein bands were visualized using western blotting luminol reagent solution and ImageQuant LAS 500 (GE Healthcare, Uppsala, Sweden). The density of the bands was quantified using ImageJ software (NIH, Bethesda, MD, USA).

[2] = system: HCC827GR cells; assay: MTT viability after NAC pretreatment, HCC827GR; settings: for cell viability (relative to untreated = 100.00): HCC827GR
Protocol: All culture media were supplemented with FBS (10 %) and P/S (1 %), and the cells were grown at 37 °C in 5 % CO2.
The cells were treated with MTT and incubated for 2 h. The supernatants were removed, and the remaining formazan crystals were dissolved in DMSO before absorbance measurement at 570 nm using a Multiscan GO spectrophotometer (Thermo Fisher Scientific, Vantaa, Finland).

[3] = system: HCC827 cells; assay: Multi-caspase assay, HCC827; parameters: Caspase+ cells / Total Caspase+ cells / dead cells (multi-caspase assay) / Live cells (multi-caspase assay): unit not given here; settings: for cells with activated caspases: 48 h, background 6.52 %
Protocol: as §1

[4] = HCC827, DBG 3 nM, mean of samples 1-3
[5] = HCC827, DBG 6 nM, mean of samples 1-3
[6] = HCC827, DBG 12 nM, mean of samples 1-3

Structure (SMILES): COc1ccc(C[C@H]2C(=O)N[C@@H](C)C(=O)N(C)[C@H]3Cc4ccc(cc4)Oc4cc(ccc4O[C@@H]4O[C@H](CO)[C@@H](O)[C@H](O)[C@H]4O)C[C@@H](C(=O)N[C@H](C)C(=O)N[C@@H](C)C(=O)N2C)N(C)C3=O)cc1 [DBG, deoxybouvardin glucoside]
- level of p27 ([1]; DBG, 48 h): increasing p27
- p27 protein/actin ([1]; HCC827, DBG 3 nM, DBG 0 nM 0.14): 0.14
- p27 protein ratio ([1]; HCC827, DBG 3 nM, relative to DBG 12 nM = 1.00, DBG 0 nM 0.34): 0.33
- p27 protein/actin ([1]; HCC827, DBG 6 nM, DBG 0 nM 0.14): 0.40
- p27 protein ratio ([1]; HCC827, DBG 6 nM, relative to DBG 12 nM = 1.00, DBG 0 nM 0.34): 0.96
- p27 protein ratio ([1]; HCC827, DBG 12 nM (set to 1.00), DBG 0 nM 0.34): 1.00
- p27 protein/actin ([1]; HCC827, DBG 12 nM, DBG 0 nM 0.14): 0.42
- p27 protein/actin ([1]; HCC827GR, DBG 3 nM, DBG 0 nM 0.06): 0.09
- p27 protein ratio ([1]; HCC827GR, DBG 3 nM, relative to DBG 12 nM = 1.00, DBG 0 nM 0.08): 0.11
- p27 protein/actin ([1]; HCC827GR, DBG 6 nM, DBG 0 nM 0.06): 0.69
- p27 protein ratio ([1]; HCC827GR, DBG 6 nM, relative to DBG 12 nM = 1.00, DBG 0 nM 0.08): 0.90
- p27 protein ratio ([1]; HCC827GR, DBG 12 nM (set to 1.00), DBG 0 nM 0.08): 1.00
- p27 protein/actin ([1]; HCC827GR, DBG 12 nM, DBG 0 nM 0.06): 0.77
- cell viability (relative to untreated = 100.00) ([2]; DBG 12 nM, mean of 3): 38.91
- cell viability (relative to untreated = 100.00) ([2]; DBG 12 nM, replicate 1): 39.88
- cell viability (relative to untreated = 100.00) ([2]; DBG 12 nM, replicate 2): 38.76
- cell viability (relative to untreated = 100.00) ([2]; DBG 12 nM, replicate 3): 38.08
- cell viability (relative to untreated = 100.00) ([2]; NAC 4 mM + DBG 12 nM, mean of 3): 99.25
- cell viability (relative to untreated = 100.00) ([2]; NAC 4 mM + DBG 12 nM, replicate 1): 100.78
- cell viability (relative to untreated = 100.00) ([2]; NAC 4 mM + DBG 12 nM, replicate 2): 98.32
- cell viability (relative to untreated = 100.00) ([2]; NAC 4 mM + DBG 12 nM, replicate 3): 98.66
- anticancer activity of DBG after NAC pretreatment ([2]; NAC 4 mM, 3 h, DBG 48 h): decreased
- cytotoxicity after NAC pretreatment ([2]; NAC 4 mM, DBG 12 nM): a little, if any, cytotoxicity only at 12 nM
- cells with activated caspases ([3]; DBG 3 nM): 16.23%
- cells with activated caspases ([3]; DBG 6 nM): 24.10%
- cells with activated caspases ([3]; DBG 12 nM): 25.94%
- Caspase+ cells [3, 4]: 4.43
- Caspase+/dead cells [3, 4]: 11.80
- Live cells (multi-caspase assay) [3, 4]: 83.72
- Total Caspase+ cells [3, 4]: 16.23
- dead cells (multi-caspase assay) [3, 4]: 0.05
- Caspase+ cells ([3]; HCC827, DBG 3 nM, sample 1): 5.19
- Caspase+/dead cells ([3]; HCC827, DBG 3 nM, sample 1): 10.83
- Live cells (multi-caspase assay) ([3]; HCC827, DBG 3 nM, sample 1): 83.88
- Total Caspase+ cells ([3]; HCC827, DBG 3 nM, sample 1): 16.02
- dead cells (multi-caspase assay) ([3]; HCC827, DBG 3 nM, sample 1): 0.10
- Caspase+ cells ([3]; HCC827, DBG 3 nM, sample 2): 3.91
- Caspase+/dead cells ([3]; HCC827, DBG 3 nM, sample 2): 12.71
- Live cells (multi-caspase assay) ([3]; HCC827, DBG 3 nM, sample 2): 83.38
- Total Caspase+ cells ([3]; HCC827, DBG 3 nM, sample 2): 16.62
- dead cells (multi-caspase assay) ([3]; HCC827, DBG 3 nM, sample 2): 0.00
- Caspase+ cells ([3]; HCC827, DBG 3 nM, sample 3): 4.20
- Caspase+/dead cells ([3]; HCC827, DBG 3 nM, sample 3): 11.85
- Live cells (multi-caspase assay) ([3]; HCC827, DBG 3 nM, sample 3): 83.89
- Total Caspase+ cells ([3]; HCC827, DBG 3 nM, sample 3): 16.06
- dead cells (multi-caspase assay) ([3]; HCC827, DBG 3 nM, sample 3): 0.05
- Caspase+ cells [3, 5]: 9.84
- Caspase+/dead cells [3, 5]: 14.26
- Live cells (multi-caspase assay) [3, 5]: 75.85
- Total Caspase+ cells [3, 5]: 24.10
- dead cells (multi-caspase assay) [3, 5]: 0.00
- Caspase+ cells ([3]; HCC827, DBG 6 nM, sample 1): 10.64
- Caspase+/dead cells ([3]; HCC827, DBG 6 nM, sample 1): 13.33
- Live cells (multi-caspase assay) ([3]; HCC827, DBG 6 nM, sample 1): 76.03
- Total Caspase+ cells ([3]; HCC827, DBG 6 nM, sample 1): 23.97
- dead cells (multi-caspase assay) ([3]; HCC827, DBG 6 nM, sample 1): 0.00
- Caspase+ cells ([3]; HCC827, DBG 6 nM, sample 2): 9.67
- Caspase+/dead cells ([3]; HCC827, DBG 6 nM, sample 2): 14.53
- Live cells (multi-caspase assay) ([3]; HCC827, DBG 6 nM, sample 2): 75.65
- Total Caspase+ cells ([3]; HCC827, DBG 6 nM, sample 2): 24.20
- dead cells (multi-caspase assay) ([3]; HCC827, DBG 6 nM, sample 2): 0.00
- Caspase+ cells ([3]; HCC827, DBG 6 nM, sample 3): 9.21
- Caspase+/dead cells ([3]; HCC827, DBG 6 nM, sample 3): 14.92
- Live cells (multi-caspase assay) ([3]; HCC827, DBG 6 nM, sample 3): 75.87
- Total Caspase+ cells ([3]; HCC827, DBG 6 nM, sample 3): 24.13
- dead cells (multi-caspase assay) ([3]; HCC827, DBG 6 nM, sample 3): 0.00
- Caspase+ cells [3, 6]: 16.76
- Caspase+/dead cells [3, 6]: 9.18
- Live cells (multi-caspase assay) [3, 6]: 73.91
- Total Caspase+ cells [3, 6]: 25.94
- dead cells (multi-caspase assay) [3, 6]: 0.08
- Caspase+ cells ([3]; HCC827, DBG 12 nM, sample 1): 17.38
- Caspase+/dead cells ([3]; HCC827, DBG 12 nM, sample 1): 9.37
- Live cells (multi-caspase assay) ([3]; HCC827, DBG 12 nM, sample 1): 73.00
- Total Caspase+ cells ([3]; HCC827, DBG 12 nM, sample 1): 26.75
- dead cells (multi-caspase assay) ([3]; HCC827, DBG 12 nM, sample 1): 0.05
- Caspase+ cells ([3]; HCC827, DBG 12 nM, sample 2): 16.62
- Caspase+/dead cells ([3]; HCC827, DBG 12 nM, sample 2): 9.35
- Live cells (multi-caspase assay) ([3]; HCC827, DBG 12 nM, sample 2): 73.88
- Total Caspase+ cells ([3]; HCC827, DBG 12 nM, sample 2): 25.97
- dead cells (multi-caspase assay) ([3]; HCC827, DBG 12 nM, sample 2): 0.15
- Caspase+ cells ([3]; HCC827, DBG 12 nM, sample 3): 16.27
- Caspase+/dead cells ([3]; HCC827, DBG 12 nM, sample 3): 8.82
- Live cells (multi-caspase assay) ([3]; HCC827, DBG 12 nM, sample 3): 74.86
- Total Caspase+ cells ([3]; HCC827, DBG 12 nM, sample 3): 25.09
- dead cells (multi-caspase assay) ([3]; HCC827, DBG 12 nM, sample 3): 0.05
